# US12662469B2 (SIRONAX LTD, priority 2018, dated 2026)
# Test system: Cell Necrosis
# Assay: Cell necrosis assay / cell viability assay (necrosis inhibitor activity)
# Type: cell-based
# Settings: not given
row,Structure (SMILES),EC50 [nM]
1,"O=C(N1CCN(Cc2ccccc2)CC1)N1N=CCC1c1ccccc1 (centres unmarked) [Compound 97, (4-benzylpiperazin-1-yl)(5-phenyl-4,5-dihydro-1H-pyrazol-1-yl)methanone]",1000 to 10000

# Same assay, conditions: necrosis inhibitor activity; EC data for 14-191 extrapolated; read-out: EC50
row,Structure (SMILES),EC50 [nM]
1,"Cc1ccccc1CC1CN(C(=O)N2N=CCC2c2ccccc2)C1 (centres unmarked) [Compound 37, (3-(2-methylbenzyl)azetidin-1-yl)(5-phenyl-4,5-dihydro-1H-pyrazol-1-yl) methanone]",1 to 1000
2,"O=C(N1CCN(c2cnccn2)CC1)N1N=CCC1c1ccccc1 (centres unmarked) [Compound 86, (5-phenyl-4,5-dihydro-1H-pyrazol-1-yl)(4-(pyrazin-2-yl)piperazin-1-yl)methanone]",1 to 1000
3,O=C1NCc2cc(OC3CN(C(=O)N4N=CCC4c4cc(F)cc(F)c4)C3)ccc21 (centres unmarked) [Compound 180],1 to 1000
4,O=C(N1CC(Oc2ccc(F)nc2F)C1)N1N=CC[C@H]1c1cc(F)cc(F)c1 [Compound 145],1 to 1000
5,"O=C(N1CC[C@@H](Oc2ccccc2F)C1)N1N=CCC1c1ccccc1 (stereo partly drawn) [Compound 31, ((R)-3-(2-fluorophenoxy)pyrrolidin-1-yl)(5-phenyl-4,5-dihydro-1H-pyrazol-1-yl)methanone]",1 to 1000
6,Cn1c(OC2CN(C(=O)N3N=CCC3c3cc(F)cc(F)c3)C2)cccc1=O (centres unmarked) [Compound 188],1 to 1000
7,"O=C(N1CCC(Cc2ccccc2)C1)N1N=CCC1c1ccccc1 (centres unmarked) [Compound 17, (3-benzylpyrrolidin-1-yl)(5-phenyl-4,5-dihydro-1H-pyrazol-1-yl)methanone]",1 to 1000
8,"O=C(N1CC[C@@H](Oc2ccc(F)cc2)C1)N1N=CCC1c1ccccc1 (stereo partly drawn) [Compound 33, ((R)-3-(4-fluorophenoxy)pyrrolidin-1-yl)(5-phenyl-4,5-dihydro-1H-pyrazol-1-yl)methanone]",1 to 1000
9,O=C(N1CC(Oc2scc3c(=O)[nH]cnc23)C1)N1N=CCC1c1cc(F)cc(F)c1 (centres unmarked) [Compound 169],1 to 1000
10,"O=C(N1CC(=Cc2ccc(F)cc2Cl)C1)N1N=CCC1c1cc(F)cc(F)c1 (centres unmarked) [Compound 139, (3-(2-chloro-4-fluorobenzylidene)azetidin-1-yl)(5-(3,5-difluorophenyl)-4,5-dihydro-1H-pyrazol-1-yl)methanone]",1 to 1000
11,"O=C(N1CCN(c2ncc(F)cn2)CC1)N1N=CCC1c1cc(F)cc(F)c1 (centres unmarked) [Compound 101, (5-(3,5-difluorophenyl)-4,5-dihydro-1H-pyrazol-1-yl)(4-(5-fluoropyrimidin-2-yl)piperazin-1-yl)methanone]",1 to 1000
12,"Nc1ccnc(N2CCN(C(=O)N3N=CCC3c3ccccc3)CC2)n1 (centres unmarked) [Compound 102, (4-(4-aminopyrimidin-2-yl)piperazin-1-yl)(5-phenyl-4,5-dihydro-1H-pyrazol-1-yl)methanone]",1000 to 10000
13,"O=C(N1CC[C@H](Oc2ccccc2)C1)N1N=CCC1c1ccccc1 (stereo partly drawn) [Compound 27A, ((S)-3-phenoxypyrrolidin-1-yl)(S-phenyl-4,5-dihydro-1H-pyrazol-1-yl)methanone]",1000 to 10000
14,"O=C(N1CC(Oc2ccccc2F)C1)N1N=CCC1c1ccccc1 (centres unmarked) [Compound 60, (3-(2-fluorophenoxy)azetidin-1-yl)(5-phenyl-4,5-dihydro-1H-pyrazol-1-yl)methanone]",1 to 1000

# Same assay, conditions: necrosis inhibitor activity; compounds outside 14-191; read-out: EC50
row,Structure (SMILES),EC50 [nM]
1,"CC1CN(C(=O)N2N=CCC2c2ccccc2)C1 (centres unmarked) [Compound 4, (3-methylazetidin-1-yl)(5-phenyl-4,5-dihydro-1H-pyrazol-1-yl)methanone]",1 to 1000
2,"N#Cc1cnc2ccc(O[C@@H]3CCN(C(=O)N4N=CC[C@H]4c4cc(F)cc(F)c4)C3)nn12 [Compound 240, 6-(((R)-1-((S)-5-(3,5-difluorophenyl)-4,5-dihydro-1H-pyrazole-1-carbonyl)pyrrolidin-3-yl)oxy)imidazo[1,2-b]pyridazine-3-carbonitrile]",1 to 1000
3,"CC(=O)Nc1cccc(OC2CN(C(=O)N3N=CCC3c3cc(F)cc(F)c3)C2)c1 (centres unmarked) [Compound 228, N-(3-((1-(5-(3,5-difluorophenyl)-4,5-dihydro-1H-pyrazole-1-carbonyl)azetidin-3-yl)oxy)phenyl)acetamide]",1 to 1000
4,"N#Cc1cc(F)cc(OC2CN(C(=O)N3N=CC[C@H]3c3cc(F)cc(F)c3)C2)c1 [Compound 237, (S)-3-((1-(5-(3,5-difluorophenyl)-4,5-dihydro-1H-pyrazole-1-carbonyl)azetidin-3-yl)oxy)-5-fluorobenzonitrile]",1 to 1000
5,"O=C1COc2ccc(OC3CN(C(=O)N4N=CC[C@H]4c4cc(F)cc(F)c4)C3)cc2N1 [Compound 201, (S)-6-((1-(5-(3,5-difluorophenyl)-4,5-dihydro-1H-pyrazole-1-carbonyl)azetidin-3-yl)oxy)-2H-benzo[b][1,4]oxazin-3(4H)-one]",1 to 1000
6,"O=C(N1CC(=Cc2ccc(Cl)nc2Cl)C1)N1N=CC[C@H]1c1cc(F)cc(F)c1 [Compound 316, (S)-(3-((2,6-dichloropyridin-3-yl)methylene)azetidin-1-yl)(5-(3,5-difluorophenyl)-4,5-dihydro-1H-pyrazol-1-yl)methanone]",1 to 1000
7,"O=C(N1CC(=Cc2ccc3oc(=O)[nH]c3c2)C1)N1N=CC[C@H]1c1cc(F)cc(F)c1 [Compound 311, (S)-5-((1(5-(3,5-difluorophenyl)-4,5-dihydro-1H-pyrazole-1-carbonyl)azetidin-3-ylidene)methyl)benzo[d]oxazol-2(3H)-one]",1 to 1000
8,"CNc1cccc(OC2CN(C(=O)N3N=CCC3c3cc(F)cc(F)c3)C2)c1 (centres unmarked) [Compound 231, (5-(3,5-difluorophenyl)-4,5-dihydro-1H-pyrazol-1-yl)(3-(3-(methylamino)phenoxy)azetidin-1-yl)methanone]",1 to 1000
9,"O=C(N1CC(=Cc2cc3[nH]nc(F)c3cc2F)C1)N1N=CCC1c1ccccc1 (centres unmarked) [Compound 302, (3-((3,5-difluoro-1H-indazol-6-yl)methylene)azetidin-1-yl)(5-phenyl-4,5-dihydro-1H-pyrazol-1-yl)methanone]",1 to 1000
10,"CC1Oc2ccc(OC3CN(C(=O)N4N=CC[C@H]4c4cc(F)cc(C#N)c4)C3)cc2NC1=O (stereo partly drawn) [Compound 354, 3-fluoro-5-((5S)-1-(3-((2-methyl-3-oxo-3,4-dihydro-2H-benzo[b][1,4]oxazin-6-yl)oxy)azetidine-1-carbonyl)-4,5-dihydro-1H-pyrazol-5-yl)benzonitrile]",1 to 1000
11,"Nc1cc(F)c(F)c(C=C2CN(C(=O)N3N=CC[C@H]3c3cc(F)cc(F)c3)C2)c1 [Compound 299, (S)-(3-(5-amino-2,3-difluorobenzylidene)azetidin-1-yl)(5-(3,5-difluorophenyl)-4,5-dihydro-1H-pyrazol-1-yl)methanone]",1 to 1000
12,"Nc1cccc(OC2CN(C(=O)N3N=CCC3c3cc(F)cc(F)c3)C2)c1 (centres unmarked) [Compound 229, (3-(3-aminophenoxy)azetidin-1-yl)(5-(3,5-difluorophenyl)-4,5-dihydro-1H-pyrazol-1-yl)methanone]",1 to 1000
13,"O=C(N1CC(=Cc2ccc(F)nc2)C1)N1N=CCC1c1cncc(F)c1 (centres unmarked) [Compound 307, (5(5-fluoropyridin-3-yl)-4,5-dihydro-H-pyrazol-1-yl)(3-((6-fluoropyridin-3-yl)methylene)azetidin-1-yl)methanone]",1 to 1000
14,"O=C1COc2ccc(OC3CN(C(=O)N4N=CC[C@H]4c4ccccc4)C3)cc2N1 [Compound 199, (S)-6-((1-(5-phenyl-4,5-dihydro-1H-pyrazole-1-carbonyl)azetidin-3-yl)oxy)-2H-benzo[b][1,4]oxazin-3(4H)-one]",1 to 1000
